According to patent US10709705B2, “Aminopyrimidines as ALK inhibitors” (THE REGENTS OF THE UNIVERSITY OF MICHIGAN, priority 2016, dated 2020):

Key:
[1] = biological target: T1, wild-type human ALK protein (cytoplasmic domain, amino acid 1058-1620) (Homo sapiens, UniProt Q9UM73); experiment: Wild-type ALK kinase inhibition, Lance TR-FRET assay; format: biochemical; settings: Table 4; target not given; Cpd. No. 5 value equals WT ALK IC50 of Table 5; read-out: Inhibitory activity
T1 construct: The cytoplasmic domain (amino acid 1058-1620) of wild-type human ALK protein; purchased Carna Biosciences, Inc (Japan)
Protocol: The cytoplasmic domain (amino acid 1058-1620) of wild-type human ALK protein expressed as N-terminal GST-fusion protein was purchased from Carna Biosciences, Inc (Japan). Mutated ALK proteins were expressed in SF9 insect cells with N-terminal tags cleaved after purification. Kinase activities of all enzymes were assessed using a Lance® TR-FRET assay kit from Perkin Elmer Life Sciences (Waltham, Mass.). 2.5 μL of compound solution and 5 μL of protein solution were added into a black low volume 384 well microtiter plate which was incubated for 30 minutes with gentle shaking at room temperature, followed by adding 2.5 μL of fluorescently labeled peptide substrate (ULight™-IRS-1 (Tyr983) Peptide) and ATP mixture solution. The kinase reaction was performed in 50 mM HEPES (pH 7.5) with 1 mM EGTA, 1 mM MgCl2, and 2 mM DTT, 0.01% Tween-20 added right before the assay. Final concentrations of ATP, substrates, and DMSO were 100 μM, 20 nM, and 0.5%, respectively. […] Final ALK concentrations were 1 nM, 1 nM, InM, 128 nM, 2 nM, and 4 nM for wild-type, F1174L, L1196M, S1206Y, G1269A, and G1202R, respectively. The reaction was allowed to perform for 90 minutes in dark with gentle shaking at room temperature after which 10 μL of 20 mM EDTA and 2 nM Eu-W1024 anti-phosphotyrosine antibody (PT66) mixture solution in the detection buffer from the manufacturer was added to terminate the reaction and detect the phosphorylation of the peptide substrate. The final mixture was incubated in the dark for 1 hour before the plate was read on a Tecan Infinite M-1000 multi-mode plate reader (Tecan, Durham N.C.) with an excitation wavelength of 320 nm. Emission intensities were measured at both 620 and 665 nm with the intensity ratio between 665 and 620 nm corresponding to the peptide substrate phosphorylation. IC50 values of inhibitors were obtained by fitting the ratio of 665/620 nm vs inhibitor concentrations in a sigmoidal dose-response curve (variable slope) with a non-linear regression.

[2] = system: H3122 cells (EML4-ALK); experiment: Cell growth inhibition assay (WST-8), H3122; format: cell-based; settings: Homo sapiens, NCI-H3122, read-out: H3122 (nM) (EML4-ALK), 50% of cell growth inhibition (IC50), WST-8, versus DMSO control
Protocol: (§1) H3122 and Kappas-299 cells were purchased from American Type Culture Collection (Manassas, Va., USA) and were used within 2 months after initiating from original stocks. All cell lines were cultured as recommended. For cell growth inhibition assay, cells were treated with different concentrations of the tested compounds, diluted from stock to culture media containing a 0.2% DMSO as the final concentration. Cell viability was determined using the WST-8 cell proliferation assay kit (Dojindo Molecular Technologies) according to manufacturer's instructions. Three independent experiments in triplicates were performed.

[3] = system: Kappas-299 cells (NPM-ALK); experiment: Cell growth inhibition assay (WST-8), Kappas-299; format: cell-based; settings: read-out: Kappas-299 (nM) (NPM-ALK), 50% of cell growth inhibition (IC50), WST-8, versus DMSO control
Protocol: as §1

[4] = Pharmacokinetics in SD rats; format: in vivo; settings: 10 mg/kg, Table 8 (SD rats), PO 10 mg/kg
Protocol: Routine pharmacokinetics studies were performed for Cpd. No. 5 in SD rats and beagle dogs.

[5] = system: Human lymphoma cells, KARPAS 299 xenograft; experiment: KARPAS 299 xenograft tumor growth in SCID mice; format: in vivo; settings: given orally, once daily for 3 weeks, FIG. 1
Protocol: Cpd. Nos. 5 and 6 were dissolved in a solution of 98% PEG200: 2% TPGS (Sigma).
Human lymphoma cells, KARPAS 299 were maintained at 37° C., 95% air, 5% carbon dioxide in RPMI 1640 medium supplemented with 10% Fetal Bovine Serum, 100 units/ml of penicillin and 100 units/ml of streptomycin (GIBCO™, Invitrogen Corp.) and passaged twice weekly.
Tumor cells for xenografts were washed twice in PBS, and re-suspended in an ice cold mixture of 1:1 PBS and Matrigel (BD Biosciences, Invitrogen Corp.) for a final Matrigel protein concentration of 5 mg/ml. Cells at 5×10^6 cells in 0.1 ml were injected subcutaneously (s.c.) into the flank region of each mouse. All tumors were inoculated into SCID mice (strain:236 C.B-17 SCID, Charles River).
The size of tumors growing in the mice was measured in two dimensions using calipers. Tumor volume (mm^3)=(AxB^2)/2 where A and B are the tumor length and width (in mm), respectively. During treatment, tumor volume and body weight were measured three times a week. After the treatment was stopped, tumor volume and body weight was measured at least once a week.
Tumors were not allowed to exceed 10% of the animal's total body weight. If an animal had two or more tumors the total weight of all tumors were not allowed to exceed 10% of the animal's total body weight. […]

T1 sequence (Q9UM73 1058-1620): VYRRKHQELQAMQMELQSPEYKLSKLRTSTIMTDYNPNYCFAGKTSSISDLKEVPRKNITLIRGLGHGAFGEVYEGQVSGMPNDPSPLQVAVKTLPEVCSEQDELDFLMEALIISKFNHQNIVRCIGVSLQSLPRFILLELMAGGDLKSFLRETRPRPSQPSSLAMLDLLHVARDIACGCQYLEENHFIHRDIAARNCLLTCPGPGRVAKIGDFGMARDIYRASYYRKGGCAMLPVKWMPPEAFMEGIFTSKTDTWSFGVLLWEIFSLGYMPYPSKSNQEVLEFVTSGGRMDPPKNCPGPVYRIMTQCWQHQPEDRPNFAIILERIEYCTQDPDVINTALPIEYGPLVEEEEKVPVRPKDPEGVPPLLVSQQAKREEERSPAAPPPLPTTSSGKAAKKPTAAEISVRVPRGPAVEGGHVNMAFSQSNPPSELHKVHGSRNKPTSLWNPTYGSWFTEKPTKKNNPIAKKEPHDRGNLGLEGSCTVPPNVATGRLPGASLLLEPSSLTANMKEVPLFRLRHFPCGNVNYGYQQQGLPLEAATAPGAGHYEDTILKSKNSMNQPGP

SMILES | IC50 [1] [nM] | IC50 [2] [nM] | IC50 [3] [nM] | further results
Cc1cc(Nc2ncc(Cl)c(Nc3ccccc3S(=O)(=O)C(C)C)n2)c(OC(C)C)cc1C1=C[C@H](C2CC2)N[C@H](C2CC2)C1 (racemic) [compound 15, 5-chloro-N2-(4-((cis)-2,6-dicyclopropyl-1,2,3,6-tetrahydropyridin-4-yl)-2-isopropoxy-5-methylphenyl)-N4-(2-(isopropylsulfonyl)phenyl)pyrimidine-2,4-diamine] | 6.6 | 196 | 121 | 
Cc1cc(Nc2ncc(Cl)c(Nc3ccccc3S(=O)(=O)C(C)C)n2)c(OC(C)C)cc1C1=C[C@H](C2CC2)N(C)[C@H](C2CC2)C1 (racemic) [compound 16, 5-chloro-N2-(4-((cis)-2,6-dicyclopropyl-1-methyl-1,2,3,6-tetrahydropyridin-4-yl)-2-isopropoxy-5-methylphenyl)-N4-(2-(isopropylsulfonyl)phenyl)pyrimidine-2,4-diamine] | 6.3 | 160 | 97.7 | 
Cc1cc(Nc2ncc(Cl)c(Nc3ccccc3S(=O)(=O)C(C)C)n2)c(OC(C)C)cc1C1=CCN(C2CCOCC2)CC1 [Cpd. No. 5 (mesylate), 5-chloro-N2-(2-isopropoxy-5-methyl-4-(1-(tetrahydro-2H-pyran-4-yl)-1,2,3,6-tetrahydropyridin-4-yl)phenyl)-N4-(2-(isopropylsulfonyl)phenyl)pyrimidine-2,4-diamine] |  |  |  | half-life ([4]; Sprague-Dawley, rat, in vivo, po, read-out: t1/2 (h) PO (converted)): 3.84 h; AUC0-t (ng · h/mL) PO [4]: 958 ng·h/mL; AUC0-∞ (ng · h/mL) PO [4]: 971 ng·h/mL; Cmax(ng/mL) PO [4]: 127 ng/mL; Tmax (h) PO [4]: 1.0 h
Cc1cc(Nc2ncc(Cl)c(Nc3ccccc3S(=O)(=O)C(C)C)n2)c(OC(C)C)cc1C1=CC(C)(C)N(C)C(C)(C)C1 [compound 1, 5-chloro-N2-(2-isopropoxy-5-methyl-4-(1,2,2,6,6-pentamethyl-1,2,3,6-tetrahydropyridin-4-yl)phenyl)-N4-(2-(isopropylsulfonyl)phenyl)pyrimidine-2,4-diamine] | 1.8 | 92 | 30 | 
Cc1cc(Nc2ncc(Cl)c(Nc3ccccc3S(=O)(=O)C(C)C)n2)c(OC(C)C)cc1C1=CC(C)(C)NC(C)(C)C1 [compound 2, 5-chloro-N2-(2-isopropoxy-5-methyl-4-(2,2,6,6-tetramethyl-1,2,3,6-tetrahydropyridin-4-yl)phenyl)-N4-(2-(isopropylsulfonyl)phenyl)pyrimidine-2,4-diamine] | 4.4 | 132 | 39 | 
Cc1cc(Nc2ncc(Cl)c(Nc3ccccc3S(=O)(=O)C(C)C)n2)c(OC(C)C)cc1C1=CCN(C2COC2)CC1 [compound 6, 5-chloro-N2-(2-isopropoxy-5-methyl-4-(1-(oxetan-3-yl)-1,2,3,6-tetrahydropyridin-4-yl)phenyl)-N4-(2-(isopropylsulfonyl)phenyl)pyrimidine-2,4-diamine] |  |  |  | tumor growth in the KARPAS 299 xenograph model [5]: inhibit tumor growth

Second part, led by results:

IC50 [1] [nM] | IC50 [2] [nM] | SMILES | IC50 [3] [nM] | further results
1.1 | 54.9 | Cc1cc(Nc2ncc(Cl)c(Nc3ccccc3S(=O)(=O)C(C)C)n2)c(OC(C)C)cc1C1=C[C@H](C)N[C@H](C)C1 (racemic) [compound 9, 5-chloro-N2-(4-((cis)-2,6-dimethyl-1,2,3,6-tetrahydropyridin-4-yl)-2-isopropoxy-5-methylphenyl)-N4-(2-(isopropylsulfonyl)phenyl)pyrimidine-2,4-diamine] | 35.9 | 
0.98 | 54.9 | Cc1cc(Nc2ncc(Cl)c(Nc3ccccc3S(=O)(=O)C(C)C)n2)c(OC(C)C)cc1C1=C[C@H](C)N(C)[C@H](C)C1 (racemic) [compound 10, 5-chloro-N2-(2-isopropoxy-5-methyl-4-((cis)-1,2,6-trimethyl-1,2,3,6-tetrahydropyridin-4-yl)phenyl)-N4-(2-(isopropylsulfonyl)phenyl)pyrimidine-2,4-diamine] | 37.5 | 
